Values quoted from earlier work in US7087617B2, “Substituted pyrimidine derivatives” (Pfizer Inc., priority 2003, dated 2006).

Settings: for effect on the "anxiogenic" effects / actions of CRF in the conflict test: rats, CRF-induced effects

CNC(=O)c1cc2c(cn1)[nH]c1ccccc12 [FG 7142]
effect on the "anxiogenic" effects / actions of CRF in the conflict test: enhanced the actions of CRF

CCOC(=O)c1ncn2c1CN(C)C(=O)c1cc(F)ccc1-2 [Ro 15-1788]
behavioral activity alone in the operant conflict test (compound alone, without CRF): without behavioral activity alone
effect on the "anxiogenic" effects / actions of CRF in the conflict test: reversed the effects of CRF in a dose-dependent manner
